According to the supplement of paper PMC10307832:

Columns and labels:
Test in all cases: relative viability (nuclei count vs DMSO), 5 days (fraction); higher = more cells survive
[1] = compound: CCC1=CN=CN=C1N2CCN(CC2)CC3=NC4=C(N3)C=C(C=C4)C(F)(F)F + C[C@]1(O)C[C@@H](c2nc(-c3ccc4ccc(-c5ccccc5)nc4c3)c3c(N)nccn32)C1 [Linsitinib] (partner 1 µM)
Summary of the method: (§1)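 Medians of duplicate plates are given as relative viability. That measure is the nuclei count in treated wells divided by the count in vehicle wells. Counts were taken on 4× images of lung cancer cell lines in 1536-well plates, 5 days after pin-tool dosing the day after seeding with one drug alone or a fixed anchor-drug dose plus five library-drug doses (not always all listed) in √10 steps.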

[2] = compound: CCn1c(-c2nonc2N)nc2cnc(Oc3cccc(NC(=O)c4ccc(OCCN5CCOCC5)cc4)c3)cc21 + CC1(C)CCC(c2ccc(Cl)cc2)=C(CN2CCN(c3ccc(C(=O)NS(=O)(=O)c4ccc(N[C@H](CCN5CCOCC5)CSc5ccccc5)c(S(=O)(=O)C(F)(F)F)c4)cc3)CC2)C1 [Navitoclax] (partner 0.5 µM)
Summary of the method: as §1

Mirin + Foretinib = compound: N=C1NC(=O)/C(=C/c2ccc(O)cc2)S1 [Mirin] + COc1cc2c(Oc3ccc(NC(=O)C4(C(=O)Nc5ccc(F)cc5)CC4)cc3F)ccnc2cc1OCCCN1CCOCC1 [Foretinib] (partner 0.25 µM)
Summary of the method: as §1

Mirin + Alpelisib = compound: N=C1NC(=O)/C(=C/c2ccc(O)cc2)S1 [Mirin] + Cc1nc(NC(=O)N2CCC[C@H]2C(N)=O)sc1-c1ccnc(C(C)(C)C(F)(F)F)c1 [Alpelisib] (partner 2 µM)
Summary of the method: as §1

Cell Line | relative viability ([1]; first compound 0.04 µM) | relative viability ([1]; first compound 0.1265 µM) | relative viability ([1]; first compound 0.4 µM) | relative viability ([1]; first compound 4 µM) | relative viability ([2]; first compound 0.04 µM) | relative viability ([2]; first compound 0.1265 µM) | relative viability ([2]; first compound 0.4 µM) | relative viability ([2]; first compound 1.265 µM) | relative viability ([2]; first compound 4 µM) | relative viability (Mirin + Foretinib; first compound 0.25 µM) | relative viability (Mirin + Foretinib; first compound 0.7906 µM) | relative viability (Mirin + Foretinib; first compound 2.5 µM) | relative viability (Mirin + Foretinib; first compound 7.906 µM) | relative viability (Mirin + Foretinib; first compound 25 µM) | relative viability (Mirin + Alpelisib; first compound 0.25 µM) | relative viability (Mirin + Alpelisib; first compound 0.7906 µM) | relative viability (Mirin + Alpelisib; first compound 2.5 µM) | relative viability (Mirin + Alpelisib; first compound 7.906 µM) | relative viability (Mirin + Alpelisib; first compound 25 µM) | relative viability ([1]; first compound 1.265 µM)
NCI-H727 | 0.246 | 0.183 | 0.495 | 0.299 | 0.476 | 0.564 | 0.46 | 0.441 | 0.382 | 0.9 | 0.889 | 1.18 | 1.14 | 1.12 | 0.699 | 0.7 | 0.692 | 0.761 | 0.54 | –
EMC-BAC-2 | 0.816 | 0.771 | 0.808 | 0.791 | 1.44 | 1.2 | 1.18 | 1.16 | 1.19 | 0.976 | 0.998 | 1.07 | 1.06 | 1.09 | 0.771 | 0.838 | 0.756 | 0.698 | 0.685 | 0.728
NCI-H1355 | 0.852 | 0.745 | 0.806 | 0.913 | 0.917 | 0.946 | 1.01 | 0.952 | 0.968 | 0.67 | 1 | 0.967 | 0.971 | 0.918 | 0.858 | 0.864 | 0.754 | 0.915 | 0.727 | 0.732
NCI-H2347 | 0.961 | 0.926 | 0.944 | 1.09 | 0.967 | 0.811 | 0.858 | 0.365 | 0.502 | 1.08 | 0.652 | 1.17 | 0.683 | 0.879 | 1.02 | 1.12 | 1.05 | 1.08 | 1.16 | 0.942
NCI-H1651 | 0.96 | 1.09 | 0.934 | 0.944 | 1.17 | 1.14 | 1.05 | 0.925 | 0.471 | 0.814 | 0.845 | 0.773 | 0.678 | 0.69 | 1.03 | 1.05 | 1.03 | 0.916 | 0.785 | 0.938
NCI-H1975 | 1.07 | 0.966 | 0.898 | 0.921 | 0.827 | 0.818 | 0.763 | 0.372 | 0.286 | 0.934 | 0.914 | 0.98 | 0.919 | 0.973 | 0.626 | 0.631 | 0.618 | 0.714 | 0.572 | 0.901
COR-L23 | 0.864 | 0.94 | 0.815 | 0.914 | 1.04 | 0.817 | 0.59 | 0.172 | 0.157 | 1.07 | 1.14 | 0.879 | 1.01 | 1.05 | 0.847 | 0.822 | 0.758 | 0.715 | 0.682 | 0.874
LOU-NH91 | 0.807 | 0.923 | 0.963 | 1.04 | 0.8 | 0.597 | 0.557 | 0.392 | 0.447 | 0.937 | 0.987 | 0.935 | 0.93 | 1.16 | 0.726 | – | 0.728 | 0.65 | 0.747 | 0.87
